No end group written: not given here.
What was measured:
[1] = system: C2C12 cells; assay: RT-PCR / RT-qPCR of MRF genes; assay type: cell-based; settings: Day 3; Myf6, MyoD, MyoG; normalized to GAPDH
Description: For RT-PCR, the PCR products were electrophoresed in 1.5% agarose gel containing EtBr at 100 V for 30 min and visualized using a ChemiDocTM XRS imaging system (Bio-Rad, Hercules, CA, USA). RT-qPCR was performed using SYBR Green PCR Master Mix (Applied Biosystems, Foster City, CA, USA) for quantitative analysis. Glyceraldehyde-3-phosphate dehydrogenase (GAPDH) was used as a housekeeping gene for normalization. Relative quantification (RQ) was calculated using the ΔΔCt method, and data were expressed as RQ values by comparing the threshold cycle (Ct) of each target gene to that of GAPDH. The linearity and amplification efficiency of the PCR reactions were evaluated using serial dilutions of cDNA, and all reactions were performed in triplicate. The primer sequences used were as follows: Myf5 forward ([NT]), Myf5 reverse ([NT]), Myf6 forward ([NT]), Myf6 reverse ([NT]), MyoD forward ([NT]), MyoD reverse ([NT]), MyoG forward ([NT]), MyoG reverse ([NT]).

[2] = system: C2C12 myotubes; assay: DEX-induced muscle atrophy model, Western blot; assay type: cell-based; settings: 10 μM DEX 24 h, alone or with 10 or 100 μM Myoki
Description: To induce C2C12 myotube differentiation, myoblasts were seeded in 6-well plates at 5 × 10^5 cells per well. Once reaching 90% confluency, they were cultured in DMEM supplemented with 2% horse serum (Thermo Fisher Scientific) and 1% penicillin-streptomycin. […] Differentiation was observed using an optical microscope (LEICA, 100×). Myotube morphology (length and diameter) was quantified in ImageJ (NIH) using the same images: myotube length was measured by tracing the long axis of each myotube (end-to-end), and myotube diameter was measured as the short-axis width at three positions along each myotube; the mean of the three width values was recorded as the diameter. For each experimental group, three randomly captured images (fields) were analyzed, and at least 15–20 myotubes per image were quantified under identical imaging settings.
Treated C2C12 cells (5 × 10^5 cells/well) were harvested in lysis buffer (Sigma-Aldrich, 2910) and centrifuged at 12,000 g for 10 min; proteins in the supernatant were collected. Protein concentrations were measured using the BCA Protein Assay Kit (Thermo Fisher Scientific). Each 20 μg sample was separated using 10% SDS–PAGE and transferred onto a polyvinylidene fluoride membrane (Millipore, Burlington, MA, USA). Non-specific binding was blocked with 5% non-fat dry milk for 1 h. The membranes were incubated overnight with primary antibodies: Anti-Myf5 (Abcam, ab125078), Anti-Myf6 (Abcam, ab182842), Anti-MyoD (Santa Cruz, sc-377460), Anti-MyoG (Santa Cruz, sc-52903), Anti-α-actinin (Santa Cruz, sc-17829), Anti-MYH3 (Santa Cruz, sc-53091), Anti-p-mTOR (Ser2448) (CST, #5536), Anti-p-Akt (Ser473) (CST, #9271), Anti-p-p70 S6 Kinase (Thr389) (CST, #9205), Anti-myostatin (Abcam, ab124721), Anti-atrogin-1/MAFbx (Santa Cruz, sc-166806), and Anti-MuRF1 (Santa Cruz, sc-398608). Membranes were then incubated for 1 h with HRP-conjugated secondary antibodies. Blot images were captured with the ECL system (Amersham, UK) and quantified using ImageJ.

[3] = system: patients with muscle atrophy (ICD-10-CM code: M62.5); assay: Clinical trial: 6-m walk test; assay type: in vivo, human
Description: The study was conducted at Biosite Research Private Limited (Shanthipura, India) under the New Drugs and Clinical Trials Rules (2019) issued by CDSCO (Ministry of Health and Family Welfare, Government of India), and in compliance with GCP, applicable local regulatory requirements, the Declaration of Helsinki ([…]), ICMR guidelines (2017), and ICH-GCP E6 (R2). Ethical approval was obtained from the Excel Hospital Institutional Ethics Committee (ECR/1670/Inst/TG/2022) and ethics committees of other participating centers, and the trial was prospectively registered (CTRI/2024/01/061919). All participants provided written informed consent prior to any study procedures. […] Efficacy endpoints were evaluated as changes from baseline to Week 12; efficacy analyses were conducted in the per-protocol population, and safety analyses included all randomized participants who received at least one dose of study product (Supplementary Figure S2). […] Continuous variables were summarized as N, mean (SD), median, minimum, and maximum, and categorical variables as n (%), with percentages calculated as n/N × 100. Changes from baseline to Week 12 in DEXA-assessed muscle mass, 6-m walk test, and handgrip strength were analyzed using ANCOVA, adjusting for the corresponding baseline value. […]

[4] = system: patients with muscle atrophy (ICD-10-CM code: M62.5); assay: Clinical trial: handgrip strength (hand dynamometer); assay type: in vivo, human
Description: (§1) The study was conducted at Biosite Research Private Limited (Shanthipura, India) under the New Drugs and Clinical Trials Rules (2019) issued by CDSCO (Ministry of Health and Family Welfare, Government of India), and in compliance with GCP, applicable local regulatory requirements, the Declaration of Helsinki ([…]), ICMR guidelines (2017), and ICH-GCP E6 (R2). Ethical approval was obtained from the Excel Hospital Institutional Ethics Committee (ECR/1670/Inst/TG/2022) and ethics committees of other participating centers, and the trial was prospectively registered (CTRI/2024/01/061919). All participants provided written informed consent prior to any study procedures. Key eligibility criteria included adults aged ≥18 years with low muscle mass by DEXA (men: <7.0 kg/m^2; women: <5.4 kg/m^2) and either low handgrip strength (men: <28 kg; women: <18 kg) or low physical performance (6-m walk speed <1.0 m/s). Major exclusion criteria included uncontrolled systemic disease, musculoskeletal or neurological disorders, recent anabolic steroid use, and concomitant medications known to affect protein metabolism; full inclusion and exclusion criteria are provided in Supplementary Table S1. Of 89 patients screened, seven were screen failures and two withdrew prior to randomization; 80 eligible participants were enrolled and proceeded to the baseline/randomization visit (mean age 38.83 ± 9.91 years; range 23-69). […] The study was double-blind; participants, investigators, and study staff were unaware of treatment allocation throughout the trial. […] Efficacy endpoints were evaluated as changes from baseline to Week 12; efficacy analyses were conducted in the per-protocol population, and safety analyses included all randomized participants who received at least one dose of study product (Supplementary Figure S2). Of 80 randomized participants, 75 completed the study. Statistical analyses were performed using SAS (version 9.4; SAS Institute Inc., Cary, NC, USA). Continuous variables were summarized as N, mean (SD), median, minimum, and maximum, and categorical variables as n (%), with percentages calculated as n/N × 100. Changes from baseline to Week 12 in DEXA-assessed muscle mass, 6-m walk test, and handgrip strength were analyzed using ANCOVA, adjusting for the corresponding baseline value. Least-squares means (LSMs), 95% confidence intervals, and two-sided p-values were reported, with p < 0.05 considered statistically significant.

[5] = system: patients with muscle atrophy (ICD-10-CM code: M62.5); assay: Clinical trial: serum biomarkers; assay type: in vivo, human
Description: as §1

EAEYEHL-OH [Myoki]
MRF gene expression (mRNA) [1]: significant increase | MuRF1 expression [2]: significantly and dose-dependently reduced | atrogin-1/MAFbx expression [2]: significantly and dose-dependently reduced | expression levels of differentiated muscle fiber structural proteins [2]: dose-dependently restored toward control levels | phosphorylation levels of muscle growth signaling proteins (Akt, mTOR, p70S6K) [2]: dose-dependently restored toward control levels | Time to complete 6-meter walk test (TTC-6mWT), change from baseline to Week 12 (LS mean) ([3]; 200 mg peptide/day oral, N = 38, 95% CI (−1.36 to −0.87), placebo −0.77): -1.12 s | Time to complete 6-meter walk test, difference between placebo and treatment (95% CI) ([3]; Week 12, 200 mg/day, ANCOVA, p <0.01): -0.34 s | Hand grip strength test (Left hand), change from baseline to Week 12 (LS mean) ([4]; 200 mg peptide/day oral, N = 38, 95% CI (0.77 to 1.37), placebo 0.81): 1.07 kg | Hand grip strength test (Right Hand), change from baseline to Week 12 (LS mean) ([4]; 200 mg peptide/day oral, N = 38, 95% CI (0.94 to 1.60), placebo 0.85): 1.27 kg | Hand grip strength test (Left hand), difference between placebo and treatment (95% CI) ([4]; Week 12, 200 mg/day, ANCOVA, p 0.02): 0.27 kg | Hand grip strength test (Right Hand), difference between placebo and treatment (95% CI) ([4]; Week 12, 200 mg/day, ANCOVA, p 0.04): 0.43 kg | IGF-1, change from baseline to Week 12 (LS mean) ([5]; 200 mg peptide/day oral, N = 38, 95% CI (19.49 to 43.40), placebo 13.51): 31.44 ng/mL | TNF-alpha, change from baseline to Week 12 (LS mean) ([5]; 200 mg peptide/day oral, N = 38, 95% CI (−1.54 to 9.48), placebo 4.3): 3.97 pg/mL | Creatine kinase (CK-MB), change from baseline to Week 12 (LS mean) ([5]; 200 mg peptide/day oral, N = 38, 95% CI (−2.13 to 1.04), placebo 3.41): -0.54 ng/mL | IL-6, change from baseline to Week 12 (LS mean) ([5]; 200 mg peptide/day oral, N = 38, 95% CI (−2.59 to 2.67), placebo 1.31): 0.04 pg/mL | Aspartate aminotransferase, change from baseline to Week 12 (LS mean) ([5]; 200 mg peptide/day oral, N = 38, 95% CI (−6.14 to 0.49), placebo 2.57): −2.83 IU/L | Sex hormones (Estrogen), change from baseline to Week 12 (LS mean) ([5]; 200 mg peptide/day oral, N = 38, 95% CI (−8.11 to 3.36), placebo −1.98): -2.37 pg/mL | Myoglobin, change from baseline to Week 12 (LS mean) ([5]; 200 mg peptide/day oral, N = 38, 95% CI (−10.33 to −2.56), placebo 8.15): -6.45 ng/mL | Sex hormones (testosterone), change from baseline to Week 12 (LS mean) ([5]; 200 mg peptide/day oral, N = 38, 95% CI (−21.09 to 114.17), placebo −29.9): 46.54 pg/mL | Aspartate aminotransferase, difference between placebo and treatment (95% CI) ([5]; Week 12, 200 mg/day, p 0.025): −5.39 IU/L | IGF-1, difference between placebo and treatment (95% CI) ([5]; Week 12, 200 mg/day, p 0.038): 17.93 ng/mL | Creatine kinase (CK-MB), difference between placebo and treatment (95% CI) ([5]; Week 12, 200 mg/day, p <0.01): -3.95 ng/mL | Myoglobin, difference between placebo and treatment (95% CI) ([5]; Week 12, 200 mg/day, p <0.01): -14.6 ng/mL

Source: PMC12935919 (Frontiers in Pharmacology, 2026)
